Earlier results as cited in patent publication US6874277B2, “Method and composition for promoting and controlling growth of plants” (priority 1988, dated 2005).
Where two headings read alike, the source gives them in different places.

Tested on: tomato variety San Jose Extra Early
Set-up: Dry wt increase: unit not given here
Conditions: duration 21 days

## OC[C@H]1O[C@@](CO)(O[C@H]2O[C@H](CO)[C@@H](O)[C@H](O)[C@H]2O)[C@@H](O)[C@@H]1O [10% sucrose solution, sucrose]
1 spray
  Dry wt increase: 16
1 spray, 0 sprays 188
  Mean total dry wt: 204 mg
2 sprays
  Dry wt increase: 41
  Mean total dry wt: 229 mg
3 sprays
  Dry wt increase: 50
  Mean total dry wt: 238 mg
5 sprays
  Dry wt increase: 93
  Mean total dry wt: 281 mg
10 sprays
  Dry wt increase: 163
  Mean total dry wt: 352 mg
20 sprays
  Dry wt increase: 408
  Mean total dry wt: 596 mg
